According to patent US20210046082A1, “CRYSTALLINE FORMS OF QUINOLINE ANALOGS AND SALTS THEREOF, COMPOSITIONS, AND THEIR METHODS FOR USE” (Senhwa Biosciences, Inc., priority 2019, published 2021):
In brackets after ≈: the same amount, converted by molar mass. Blank lines part the entries; values can stand above or below the compound they belong to.

What was measured:
[1] = system: BRCA deficient cells; experiment: Toxicity against BRCA deficient cells; format: cell-based; conditions: cell lines of different genetic backgrounds (colon, breast and ovary), mouse and human
[2] = system: BRCA2 knockout tumor cells; experiment: Xenograft model, BRCA2 knockout vs isogenic wild type; format: in vivo; conditions: BRCA2 knockout tumor cells in xenograft model compared with isogenic wild type control cells
[3] = system: metastatic breast cancer; experiment: Evaluation of predictive biomarkers of response to Compound I in patients; format: in vivo, human
Procedure: The duration on therapy at each dose level for evaluable patients is depicted in FIG. 15. 18 patients were diagnosed with metastatic breast cancer. […] This study was conducted to evaluate predictive biomarkers of response to Compound I and to explore the relationship between germline HRD aberrations and outcomes of Compound I treatments.

[4] = Heating of Polymorph J without solvent at 205° C.; format: physicochemical; conditions: 30 minutes
[5] = Quick solubility analysis in pH 4.5 buffer; format: physicochemical; conditions: pH 4.5 buffer solution (25 mM sodium acetate, 25° C.), filtered, LC, pH changed to 5-6
Procedure: A quick solubility analysis was conducted on Compound I Polymorphs A and J (Table 3). Each sample was suspended in pH 4.5 buffer solution (25 mM sodium acetate, 25° C.) for 10 minutes and then filtered for LC (liquid chromatography) analysis.

[6] = Polymorphic equilibrium and transformation study in MeOH/PPW at 65° C. (XRPD); format: physicochemical
Procedure: Polymorphic equilibrium studies were performed using Compound I Polymorph A and Compound I Polymorph J. To a 3-neck 250 mL flask equipped with a 3 cm stir bar and N2 inlet, a 1:1 mixture of Compound I Polymorph A (5 g) and Compound I Polymorph J (5 g, sample shown in FIG. 1), MeOH (112.5 mL, 11.25 vol) and purified process water (PPW, 37.5 mL, 3.75 vol) were charged. The resulting mixture was stirred at room temperature for 10 min, and then heated to 65° C. and sampled at 2 hrs, 4 hrs, and 6 hrs and analyzed by XRPD analysis as shown in FIG. 7.
A polymorphic transformation study was also performed. To a 20 mL vial containing a 2 cm stir bar, Compound I Polymorph J (0.5 g, sample shown in FIG. 1), MeOH (5.6 mL, 11.25 vol) and PPW (1.9 mL, 3.75 vol) were charged. The resulting mixture was heated to 65° C. for 6 hrs. Upon completion, the slurry was filtered through a Buchner funnel, and the solid was collected for XRPD analysis as shown in FIG. 8.
As described in Example 1, Polymorph J crystals precipitated out around pH 9-10 during final pH adjustment step to pH 12-13. Polymorph J is then heated to 60° C. to 65° C. in MeOH/PPW (3:1) for approximately 4 hours and maintains its polymorphic form. Thus, substantially pure (polymorphic purity) Polymorph J in MeOH/PPW (3:1) is stable at 65° C. for at least 4 hours.

[7] = Stability test at 25° C./60% RH for 18 months (XRPD, DSC); format: physicochemical
Procedure: Further, stability of Polymorph J was analyzed in solution having the composition:
Sample Preparation: 37.5 kg of WFI was added to the compounding vessel at a temperature in the range of 15 to 30° C. Vigorously sparge WFI with nitrogen for no less than 30 minutes by placing the nitrogen sparging tubing at the bottom of the pressure vessel. Continue sparging in the vessel until dissolved oxygen content was <1 ppm. In a second pressure vessel was added 20.0 kg nitrogen sparged WFI and sucrose and mixed until dissolved while continuing nitrogen sparging, not less than 15 minutes. Nitrogen sparging continued as necessary until dissolved oxygen content was <1 ppm of the sucrose solution. To the sucrose solution, 813.8 g of 2 M HCl solution was slowly added and mixed for no less than 10 minutes after addition was complete. Add Compound I into the sucrose solution vessel and rinse container that contained Compound I with nitrogen sparged WFI. Mix solution until dissolved (no less than 15 min). Add 43.5 mL of 2 M HCl and mix for no less than 5 minutes. If solution is not visually dissolved, add another portion of 43.5 mL of 2M HCl and mix for no less than 5 minutes. Adjust pH, if necessary to 4.4-4.6 with 2M HCl or 1M NaOH solution prepared using nitrogen sparged WFI. Mix solution after each addition of 2M HCl or 1M NaOH. Adjust volume with nitrogen-sparged WFI as necessary. Pull a 10 mL sample to measure pH. If necessary, re-adjust pH to 4.4-4.6 using 2M HCl or 1M NaOH solution prepared using nitrogen sparged WFI. Filtration and filling directly proceeded this step. No material was stored overnight. […]
Aseptic filling of the sterile solution: The Compound I sterile solution was filled into 20-cc clean, de-pyrogenated glass vials, with periodic weight checks to assure that the target fill quantity (5.05 g/vial) was maintained, and the vials were semi-stoppered with sterile elastomeric closures to provide the sample for stability analysis.
The sample was stored at 25° C. in 60% relative humidity (RH) for 18 months. After 18 months, the sample was analyzed by XRPD and DSC (see FIGS. 10 and 11).

[8] = Polymorph conversion on heating in MeOH/PPW (3:1) under neutral conditions; format: physicochemical; conditions: about 60-65° C., 6 hours instead of 4
Procedure: In the procedure discussed in Example 1, the wet cake obtained in the Neutralization/Polymorph Formation step was vacuum dried at no more than 65° C. Then the dried Compound I (dried wet cake) was dissolved in DCM/MeOH (3/1, v/v) and purified on silica gel column eluting with DCM/MeOH (3/1, v/v). The fractions containing Compound I was collected and passed through an in-line filter. Then Compound I was precipitated from DCM/MeOH via solvent-swap with MeOH (under vacuum with the jacket temperature of no more than 30C). After the DCM was distilled off, Compound I in MeOH was filtered and the wet cake was washed with methanol. The wet cake was vacuum dried at no more than 65° C. Then the dried Compound I, which existed in Polymorph E, was stirred in MeOH/PPW (3:1) and heated at about 60° C. to about 65° C. for 4 hours. Then the temperature was cooled down to 20° C. to 30° C. and stirred at that temperature for no longer than 1 hour. […] In the final heating step, if the mixture is heated for 6 hours instead of 4 hours, Polymorph A was observed.
It is believed that Polymorph K was transformed from Polymorph E under neutral conditions. […] Thus, without bound to be any theory, Polymorph K is believe to be a metastable form between Polymorphs E and A.

Compound: Cc1cnc(CNC(=O)c2c(=O)c3ccc(N4CCCN(C)CC4)nc3n3c2sc2ccccc23)cn1 [Compound I, 2-(4-Methyl-[1,4]diazepan-1-yl)-5-oxo-5H-7-thia-1,11b-diaza-benzo[c]fluorene-6-carboxylic acid (5-methyl-pyrazin-2-ylmethyl)-amide]
Toxicity against BRCA deficient cells [1]: specific toxicity against BRCA deficient cells
Therapeutic index of activity [2]: wide therapeutic index of activity
Response to treatment ([3]; patient with PALB2 mutation and BRCA2 mutation, 650 mg/m^2 on Day 1, Day 8, Day 15 of a 28 day cycle): partial response (PR)
Tumor shrinkage ([3]; patients with BRCA2 mutation, dose greater than or equal to 150 mg/m^2): tumor shrinkage were observed

Crystallinity by XRPD after heating [4]: less crystalline
Solubility ([5]; 10 minutes): 28.6 mg/mL (≈ 55.7 mM)
Polymorphic form by XRPD after heating ([6]; MeOH/PPW, 65° C., 6 hrs): converted to Polymorph A
Time polymorphic form is stable ([6]; substantially pure Polymorph J in MeOH/PPW (3:1) at 65° C.): at least 4 hours
Time stable on storage [7]: at least 18 months
Shift of second endothermic DSC peak after storage versus initial sample ([7]; 18 months): about 5 °C
Compound: Cc1cnc(CNC(=O)c2c(=O)c3ccc(N4CCCN(C)CC4)nc3n3c2sc2ccccc23)cn1 [Polymorph J, 2-(4-Methyl-[1,4]diazepan-1-yl)-5-oxo-5H-7-thia-1,11b-diaza-benzo[c]fluorene-6-carboxylic acid (5-methyl-pyrazin-2-ylmethyl)-amide]
XRPD pattern after storage ([7]; 18 months): substantially similar to the XRPD pattern of the initial sample

solubility at 10 min ([5]; sodium acetate buffer, 25 °C, pH 4.5, aqueous buffer, thermodynamic from solid): 29.3 mg/mL (≈ 57 mM)
Compound: Cc1cnc(CNC(=O)c2c(=O)c3ccc(N4CCCN(C)CC4)nc3n3c2sc2ccccc23)cn1 [Polymorph A, 2-(4-Methyl-[1,4]diazepan-1-yl)-5-oxo-5H-7-thia-1,11b-diaza-benzo[c]fluorene-6-carboxylic acid (5-methyl-pyrazin-2-ylmethyl)-amide]
Relative thermodynamic stability of polymorphs ([6]; MeOH/PPW, 65° C.): more thermodynamically stable than Polymorph J

Polymorphic conversion upon prolonged heating [8]: converts to Polymorph A
Compound: Cc1cnc(CNC(=O)c2c(=O)c3ccc(N4CCCN(C)CC4)nc3n3c2sc2ccccc23)cn1 [Polymorph K, 2-(4-Methyl-[1,4]diazepan-1-yl)-5-oxo-5H-7-thia-1,11b-diaza-benzo[c]fluorene-6-carboxylic acid (5-methyl-pyrazin-2-ylmethyl)-amide]
